Drawing on patent US20010014682A1, “Fibrinogen receptor antagonists” (SmithKline Beecham Corporation, priority 1997, published 2001), this text covers Ki for 1 compound.

For this experiment, the target named is T1, fibrinogen receptor (GPIIb-IIIa) (Homo sapiens, UniProt P05106+P08514).
T1 construct: The lectin-retained GPIIb-IIIa was eluted with buffer A containing 10% dextrose; tissue Red Cross; host or cells: human platelets
Briefly: Competitive binding to GPIIb-IIIa using [3H]-SK&F-107260 as RGD-type ligand. Conditions: read-out: Ki for inhibition of [3H]-SK&F 107260 binding.

The structures appear in SMILES notation. pKi: −log10 of the molar value.

T1 sequence (P08514 32-887 limits assumed): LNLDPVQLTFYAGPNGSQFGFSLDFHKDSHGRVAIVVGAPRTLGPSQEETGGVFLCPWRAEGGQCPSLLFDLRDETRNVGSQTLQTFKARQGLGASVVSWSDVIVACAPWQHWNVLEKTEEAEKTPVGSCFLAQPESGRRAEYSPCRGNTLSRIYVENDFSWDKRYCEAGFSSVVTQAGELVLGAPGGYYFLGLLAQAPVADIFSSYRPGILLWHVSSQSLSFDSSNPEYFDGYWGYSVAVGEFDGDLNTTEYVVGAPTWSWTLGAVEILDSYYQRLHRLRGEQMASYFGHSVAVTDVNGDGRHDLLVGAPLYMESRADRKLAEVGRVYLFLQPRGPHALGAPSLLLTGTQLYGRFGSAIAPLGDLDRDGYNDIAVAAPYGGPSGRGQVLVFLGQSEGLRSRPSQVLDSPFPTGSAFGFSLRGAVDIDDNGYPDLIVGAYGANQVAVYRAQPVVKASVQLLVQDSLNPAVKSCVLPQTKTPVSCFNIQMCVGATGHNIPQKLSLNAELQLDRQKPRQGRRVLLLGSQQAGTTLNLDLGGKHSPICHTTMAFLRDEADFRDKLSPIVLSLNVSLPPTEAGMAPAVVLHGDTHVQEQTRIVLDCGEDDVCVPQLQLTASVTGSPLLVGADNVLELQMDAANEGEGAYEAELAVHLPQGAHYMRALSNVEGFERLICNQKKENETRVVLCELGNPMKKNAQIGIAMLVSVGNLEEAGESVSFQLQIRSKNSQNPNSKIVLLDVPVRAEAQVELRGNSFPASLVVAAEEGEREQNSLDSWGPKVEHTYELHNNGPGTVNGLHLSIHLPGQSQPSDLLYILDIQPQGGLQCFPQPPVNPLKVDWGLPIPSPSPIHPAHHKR
T1 sequence (P08514 891-1039 limits assumed): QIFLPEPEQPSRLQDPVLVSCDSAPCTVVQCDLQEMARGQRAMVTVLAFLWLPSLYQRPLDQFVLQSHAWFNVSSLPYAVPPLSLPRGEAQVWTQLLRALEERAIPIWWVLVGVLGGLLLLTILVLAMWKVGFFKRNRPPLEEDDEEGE
T1 sequence (P05106 27-788): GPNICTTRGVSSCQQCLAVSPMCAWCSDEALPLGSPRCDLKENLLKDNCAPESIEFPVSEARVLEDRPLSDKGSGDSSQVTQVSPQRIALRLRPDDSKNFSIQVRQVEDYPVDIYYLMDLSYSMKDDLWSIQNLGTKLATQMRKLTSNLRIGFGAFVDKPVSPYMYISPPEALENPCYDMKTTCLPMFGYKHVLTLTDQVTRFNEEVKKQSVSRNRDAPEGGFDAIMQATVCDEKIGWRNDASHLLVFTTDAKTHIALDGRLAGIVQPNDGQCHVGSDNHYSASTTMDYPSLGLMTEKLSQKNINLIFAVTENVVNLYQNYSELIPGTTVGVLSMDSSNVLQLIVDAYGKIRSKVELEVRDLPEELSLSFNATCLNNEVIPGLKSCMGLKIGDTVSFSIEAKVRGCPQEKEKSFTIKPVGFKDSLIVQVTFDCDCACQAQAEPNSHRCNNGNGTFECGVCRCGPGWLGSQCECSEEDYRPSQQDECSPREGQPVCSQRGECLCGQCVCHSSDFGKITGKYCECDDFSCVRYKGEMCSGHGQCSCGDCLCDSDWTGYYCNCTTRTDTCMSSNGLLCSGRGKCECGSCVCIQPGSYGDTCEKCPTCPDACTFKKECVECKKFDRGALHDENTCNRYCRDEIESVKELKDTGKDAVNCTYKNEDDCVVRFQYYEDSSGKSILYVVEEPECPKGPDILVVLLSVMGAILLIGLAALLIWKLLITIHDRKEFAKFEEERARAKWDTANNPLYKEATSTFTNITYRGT

What is called pKi is the Ki on a negative log10 scale, so that one unit is a factor of ten. Turning to `O=C(Nc1ccc(N2CCNCC2)cc1)C1CCN(C(C(=O)O)c2ccccc2)CC1` (stereo not shown) [Example 1, 4-[(4-(1-piperizinyl)phenyl)aminocarbonyl]-1-piperidine-1-phenylacetic Acid], the pKi was about 8.46.
